{
  "source": "paper PMC10619691",
  "about": "“Effect of cyclic substituents on the anti-cancer activity and DNA interaction of ruthenium(II) bis-phenanthroline dipyridoquinoline” (Frontiers in Molecular Biosciences, 2023)",
  "key": {"DU145 cells": {"test_system": "DU145 cells", "assay": "cell cycle analysis", "type": "cell-based, human", "procedure": "(§1) The cell cycle of cervical HeLa and prostate DU145 cancer cells was studied after treatment with VNK-572 and cisplatin, respectively (Figure 3). VNK-572 and cisplatin both reduced the G2 population after 72 h compared to control (e.g., 16%–11% in Hela (p = 0.06) and from 17% to 2% in the DU145 cell line (p = 0.003) for VNK-572) (Figure 3A). […] The DU145 cells saw a decrease in both phases following 72 h of treatment—from 68% to 40% and from 11% to 5% for the G1 and S phases, respectively (Figure 3A)."}, "HeLa cells": {"test_system": "HeLa cells", "assay": "cell cycle analysis", "type": "cell-based, human", "procedure": "as §1"}},
  "data": [
    {"smiles": "F[P-](F)(F)(F)(F)F.F[P-](F)(F)(F)(F)F.[Ru+2].c1cnc2c(c1)c1ncc3c(c1c1cccnc12)CCCC3.c1cnc2c(c1)ccc1cccnc12.c1cnc2c(c1)ccc1cccnc12", "note": "[VNK-572]", "values": [
      {"measurement": "S phase population", "setting": "DU145 cells; DU145, 72 h of treatment, control 11%", "result": 5, "unit": "%"},
      {"measurement": "G1 phase population", "setting": "DU145 cells; DU145, 72 h of treatment, control 68%", "result": 40, "unit": "%"},
      {"measurement": "sub-G1 population", "setting": "DU145 cells; DU145, after 72 h, control 1%", "result": 51, "unit": "%"},
      {"measurement": "G2 population", "setting": "DU145 cells; DU145, after 72 h, control 17%", "result": 2, "unit": "%"},
      {"measurement": "changes in G1 / S phases", "setting": "HeLa cells", "result": "only slight changes"},
      {"measurement": "sub-G1 population", "setting": "HeLa cells; 72 h of treatment, control 5% (VNK-572), 6% (cisplatin)", "result": 12, "unit": "%"},
      {"measurement": "G2 population", "setting": "HeLa cells; after 72 h, control 16%", "result": 11, "unit": "%"}
    ]}
  ]
}
